According to the supplement of paper PMC11451515:

Columns and labels:
Settings in all cases: 48 h
P12-Ichikawa [1] = assay: AUC of viability dose-response curve (% viability x log10 dose units); higher = less sensitive
Method in brief: (§1)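 Seeding of medium-adapted leukemia cells was at 500 or 1000 cells/well in 1536-well plates, followed by 48 h at 37°C with library compounds in DMSO at 11 threefold doses from 47 μM to 0.79 nM. CellTiter-Glo One luminescence was normalised per plate to DMSO and cell-free wells and fitted as a four-parameter log-logistic function of log10 dose. Area under the curve was integrated by trapezoidal rule, with curves exceeding full viability scaled and curves failing quality control removed.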

SEM cells [2] = assay: as above
Method in brief: as §1

NOMO1 [3] = assay: as above
Method in brief: as §1

P12-Ichikawa [4] = assay: cell viability relative to DMSO control; higher = less cytotoxic
Method in brief: (§2)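 Library compounds in DMSO were pin-dosed in an 11-point threefold series (47 μM to 0.79 nM) onto leukemia cells in 1536-well plates (5 μl). Plates held 500 cells/well of NOMO1 or SEM or 1000 cells/well of P12-Ichikawa, each adapted for at least four passages in each medium. Luminescence was read with CellTiter-Glo One after 48 h at 37°C. Viability means the per-plate percentage relative to DMSO wells, using cell-free wells as background.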

SEM cells [5] = assay: as above
Method in brief: as §2

NOMO1 [6] = assay: as above
Method in brief: as §2

[7] = RPMI 5 mM glucose + 10% dialyzed FBS
[8] = HPLM + 10% dialyzed FBS, 0.000781 µM
[9] = HPLM + 10% dialyzed FBS, 0.00234 µM
[10] = HPLM + 10% dialyzed FBS, 0.00702 µM
[11] = HPLM + 10% dialyzed FBS, 0.0211 µM
[12] = HPLM + 10% dialyzed FBS, 0.0632 µM
[13] = HPLM + 10% dialyzed FBS, 0.19 µM
[14] = HPLM + 10% dialyzed FBS, 0.569 µM
[15] = HPLM + 10% dialyzed FBS, 1.71 µM
[16] = HPLM + 10% dialyzed FBS, 5.12 µM
[17] = HPLM + 10% dialyzed FBS, 15.4 µM
[18] = HPLM + 10% dialyzed FBS, 46.1 µM
[19] = RPMI 5 mM glucose + 10% FBS, 0.000781 µM
[20] = RPMI 5 mM glucose + 10% FBS, 0.00234 µM
[21] = RPMI 5 mM glucose + 10% FBS, 0.00702 µM
[22] = RPMI 5 mM glucose + 10% FBS, 0.0211 µM
[23] = RPMI 5 mM glucose + 10% FBS, 0.0632 µM
[24] = RPMI 5 mM glucose + 10% FBS, 0.19 µM
[25] = RPMI 5 mM glucose + 10% FBS, 0.569 µM
[26] = RPMI 5 mM glucose + 10% FBS, 1.71 µM
[27] = RPMI 5 mM glucose + 10% FBS, 5.12 µM
[28] = RPMI 5 mM glucose + 10% FBS, 15.4 µM
[29] = RPMI 5 mM glucose + 10% FBS, 46.1 µM
[30] = RPMI 5 mM glucose + 10% dialyzed FBS, 0.000781 µM
[31] = RPMI 5 mM glucose + 10% dialyzed FBS, 0.00234 µM
[32] = RPMI 5 mM glucose + 10% dialyzed FBS, 0.00702 µM
[33] = RPMI 5 mM glucose + 10% dialyzed FBS, 0.0211 µM
[34] = RPMI 5 mM glucose + 10% dialyzed FBS, 0.0632 µM
[35] = RPMI 5 mM glucose + 10% dialyzed FBS, 0.19 µM
[36] = RPMI 5 mM glucose + 10% dialyzed FBS, 0.569 µM
[37] = RPMI 5 mM glucose + 10% dialyzed FBS, 1.71 µM
[38] = RPMI 5 mM glucose + 10% dialyzed FBS, 5.12 µM
[39] = RPMI 5 mM glucose + 10% dialyzed FBS, 15.4 µM
[40] = RPMI 5 mM glucose + 10% dialyzed FBS, 46.1 µM

C[C@]12CC[C@H]3[C@@H](CC[C@@]45O[C@@H]4C(O)=C(C#N)C[C@]35C)[C@@H]1CC[C@@H]2O
AUC of viability dose-response curve (P12-Ichikawa [1]; HPLM + 10% dialyzed FBS): 454 | AUC of viability dose-response curve (P12-Ichikawa [1]; RPMI 5 mM glucose + 10% FBS): 454 | AUC of viability dose-response curve (P12-Ichikawa [1]; [7]): 454 | AUC of viability dose-response curve (SEM cells [2]; HPLM + 10% dialyzed FBS): 446 | AUC of viability dose-response curve (SEM cells [2]; RPMI 5 mM glucose + 10% FBS): 363 | AUC of viability dose-response curve (SEM cells [2]; [7]): 416 | AUC of viability dose-response curve (NOMO1 [3]; HPLM + 10% dialyzed FBS): 457 | AUC of viability dose-response curve (NOMO1 [3]; RPMI 5 mM glucose + 10% FBS): 458 | AUC of viability dose-response curve (NOMO1 [3]; [7]): 456 | cell viability (P12-Ichikawa [4]; [8]): 108% | cell viability (P12-Ichikawa [4]; [9]): 116% | cell viability (P12-Ichikawa [4]; [10]): 113% | cell viability (P12-Ichikawa [4]; [11]): 116% | cell viability (P12-Ichikawa [4]; [12]): 125% | cell viability (P12-Ichikawa [4]; [13]): 116% | cell viability (P12-Ichikawa [4]; [14]): 111% | cell viability (P12-Ichikawa [4]; [15]): 115% | cell viability (P12-Ichikawa [4]; [16]): 113% | cell viability (P12-Ichikawa [4]; [17]): 107% | cell viability (P12-Ichikawa [4]; [18]): 20.9% | cell viability (P12-Ichikawa [4]; [19]): 101% | cell viability (P12-Ichikawa [4]; [20]): 103% | cell viability (P12-Ichikawa [4]; [21]): 108% | cell viability (P12-Ichikawa [4]; [22]): 120% | cell viability (P12-Ichikawa [4]; [23]): 108% | cell viability (P12-Ichikawa [4]; [24]): 114% | cell viability (P12-Ichikawa [4]; [25]): 121% | cell viability (P12-Ichikawa [4]; [26]): 122% | cell viability (P12-Ichikawa [4]; [27]): 116% | cell viability (P12-Ichikawa [4]; [28]): 108% | cell viability (P12-Ichikawa [4]; [29]): 12.3% | cell viability (P12-Ichikawa [4]; [30]): 101% | cell viability (P12-Ichikawa [4]; [31]): 103% | cell viability (P12-Ichikawa [4]; [32]): 113% | cell viability (P12-Ichikawa [4]; [33]): 116% | cell viability (P12-Ichikawa [4]; [34]): 114% | cell viability (P12-Ichikawa [4]; [35]): 114% | cell viability (P12-Ichikawa [4]; [36]): 111% | cell viability (P12-Ichikawa [4]; [37]): 115% | cell viability (P12-Ichikawa [4]; [38]): 109% | cell viability (P12-Ichikawa [4]; [39]): 105% | cell viability (P12-Ichikawa [4]; [40]): 16.7% | cell viability (SEM cells [5]; [8]): 89.7% | cell viability (SEM cells [5]; [9]): 79.7% | cell viability (SEM cells [5]; [10]): 102% | cell viability (SEM cells [5]; [11]): 97.3% | cell viability (SEM cells [5]; [12]): 109% | cell viability (SEM cells [5]; [13]): 106% | cell viability (SEM cells [5]; [14]): 108% | cell viability (SEM cells [5]; [15]): 111% | cell viability (SEM cells [5]; [16]): 89.6% | cell viability (SEM cells [5]; [17]): 86.3% | cell viability (SEM cells [5]; [18]): 12.4% | cell viability (SEM cells [5]; [19]): 90.9% | cell viability (SEM cells [5]; [20]): 84.7% | cell viability (SEM cells [5]; [21]): 95.5% | cell viability (SEM cells [5]; [22]): 86% | cell viability (SEM cells [5]; [23]): 90.4% | cell viability (SEM cells [5]; [24]): 81.4% | cell viability (SEM cells [5]; [25]): 75.4% | cell viability (SEM cells [5]; [26]): 84.6% | cell viability (SEM cells [5]; [27]): 56.9% | cell viability (SEM cells [5]; [28]): 58.8% | cell viability (SEM cells [5]; [29]): 4.92% | cell viability (SEM cells [5]; [30]): 116% | cell viability (SEM cells [5]; [31]): 107% | cell viability (SEM cells [5]; [32]): 121% | cell viability (SEM cells [5]; [33]): 105% | cell viability (SEM cells [5]; [34]): 114% | cell viability (SEM cells [5]; [35]): 102% | cell viability (SEM cells [5]; [36]): 110% | cell viability (SEM cells [5]; [37]): 110% | cell viability (SEM cells [5]; [38]): 87.2% | cell viability (SEM cells [5]; [39]): 52.8% | cell viability (SEM cells [5]; [40]): 5.45% | cell viability (NOMO1 [6]; [8]): 102% | cell viability (NOMO1 [6]; [9]): 111% | cell viability (NOMO1 [6]; [10]): 118% | cell viability (NOMO1 [6]; [11]): 112% | cell viability (NOMO1 [6]; [12]): 123% | cell viability (NOMO1 [6]; [13]): 111% | cell viability (NOMO1 [6]; [14]): 110% | cell viability (NOMO1 [6]; [15]): 116% | cell viability (NOMO1 [6]; [16]): 97.2% | cell viability (NOMO1 [6]; [17]): 109% | cell viability (NOMO1 [6]; [18]): 21.2% | cell viability (NOMO1 [6]; [19]): 111% | cell viability (NOMO1 [6]; [20]): 119% | cell viability (NOMO1 [6]; [21]): 117% | cell viability (NOMO1 [6]; [22]): 127% | cell viability (NOMO1 [6]; [23]): 117% | cell viability (NOMO1 [6]; [24]): 119% | cell viability (NOMO1 [6]; [25]): 128% | cell viability (NOMO1 [6]; [26]): 118% | cell viability (NOMO1 [6]; [27]): 117% | cell viability (NOMO1 [6]; [28]): 117% | cell viability (NOMO1 [6]; [29]): 30.7% | cell viability (NOMO1 [6]; [30]): 110% | cell viability (NOMO1 [6]; [31]): 121% | cell viability (NOMO1 [6]; [32]): 127% | cell viability (NOMO1 [6]; [33]): 132% | cell viability (NOMO1 [6]; [34]): 143% | cell viability (NOMO1 [6]; [35]): 132% | cell viability (NOMO1 [6]; [36]): 128% | cell viability (NOMO1 [6]; [37]): 135% | cell viability (NOMO1 [6]; [38]): 136% | cell viability (NOMO1 [6]; [39]): 125% | cell viability (NOMO1 [6]; [40]): 24.3%
